According to ChEMBL document CHEMBL1147278, “Pharmacologically Active Metabolites from Symbiotic Microalgae in Okinawan Marine Invertebrates” (J Nat Prod, 1989):
Converted amounts (≈) assume the structure as drawn.

Tests used:
[1] = Inhibition of sodium potassium ATPase activity
L1210 = assay: Antitumor activity against mouse L1210 cells; format: functional, cell-based
[2] = Activation of calcium ATPase in sarcoplasmic reticulum at 100 uM

Row | Structure (SMILES) | IC50 [1] | IC50 (L1210) | Activity [2]
1 | CC/C=C\C/C=C\C/C=C\C/C=C\CCCCC(=O)OCC(CO[C@@H]1O[C@H](CO[C@H]2O[C@H](CO)[C@H](O)[C@H](O)[C@H]2O)[C@H](O)[C@H](O)[C@H]1O)OC(=O)CCCC/C=C\C/C=C\C/C=C\C/C=C\CC (some centres undefined) | 20 µM | – | –
2 | CC/C=C\C/C=C\C/C=C\C/C=C\CCCCC(=O)OCC(CO[C@@H]1O[C@H](CO)[C@H](O)[C@H](O)[C@H]1O)OC(=O)CCCC/C=C\C/C=C\C/C=C\C/C=C\CC (some centres undefined) | 20 µM | – | –
3 | CC/C=C\C/C=C\C/C=C\C/C=C\CCCCC(=O)OCC(O)CO[C@@H]1O[C@H](CO)[C@H](O)[C@H](O)[C@H]1O (some centres undefined) | 20 µM | – | –
4 | C=C1C/C=C/[C@H](O)[C@@H](O)C(=C)[C@@H](O)[C@H](O)C(=C)C/C=C/C(C)=C/C(=O)O[C@H]([C@@H]2O[C@H]2[C@@H](C)CCC)[C@@H](C)C1 [AMPHIDINOLIDE A] | – | 2.4 µg/mL (≈ 4.52 µM) | –
5 | C=C1/C=C(\C)[C@](C)(O)C[C@H](O)CC(=O)[C@H](O)[C@@H](O)[C@H](C)C[C@H](C)OC(=O)/C(C)=C/CC/C=C/[C@@H]2O[C@H]2C[C@H](C)C1 [AMPHIDINOLIDE B] | – | 0.00014 µg/mL (≈ 0.000249 µM) | –
6 | C=C1/C=C(\C)[C@@H](C)[C@@H](O)CC(=O)[C@@H](C)CC(=O)C[C@H]2CC[C@@H](O2)[C@H](/C=C/C=C(\C)[C@@H](O)C(=C)CCCC)OC(=O)C[C@@H]2O[C@H](C[C@H]2C)[C@H](O)[C@@H]1O [AMPHIDINOLIDE C] | – | 0.0058 µg/mL (≈ 0.00811 µM) | –
7 | C=C1/C=C(\C)[C@](C)(O)C[C@H](O)CC(=O)[C@@H](O)[C@@H](O)[C@H](C)C[C@H](C)OC(=O)/C(C)=C/CC/C=C/[C@@H]2O[C@H]2C[C@H](C)C1 [AMPHIDINOLIDE D] | – | 0.019 µg/mL (≈ 0.0338 µM) | –
8 | CCCCCCCCCCCCCC/C=C/C(O)C(=O)N[C@@H](CO)[C@H](O)CCCCCCCCCCCCCCC (some centres undefined) [SYMBIORAMIDE] | – | 9.5 µg/mL (≈ 16.3 µM) | 30%
